Test results: ChEMBL document CHEMBL1201862, “PubChem BioAssay data set” (2004)
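Each compound was tested at five concentrations against cells in 96-well plates for 48 hours. GI50 marks 50% less growth.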 Active and inactive are the calls of the source. No stated cut-off is given here; in the data, active = GI50 up to about 1.1 µM and inactive = higher.

Experiments:
Test in all cases: growth of human tumour cells (NCI), 48 h
[1] = tested on: HOP-18
[2] = tested on: XF498
[3] = tested on: LXFL 529
[4] = tested on: DLD-1
[5] = tested on: DMS-273
[6] = tested on: KM-20L2
[7] = tested on: M19-MEL
[8] = tested on: SNB-78
[9] = tested on: RXF 631

Measured: GI50

COc1ccc(/C=C2\CCC(C)(CN(C)C)C2=O)cc1 (configuration not stated)
inactive: [1] > 100 µM | [2] > 100 µM | [3] > 100 µM | [4] > 100 µM | [5] > 100 µM | [6] > 100 µM | [7] > 100 µM | [8] > 100 µM | [9] 40.4 µM

O=C(O)/C(Cl)=C(Cl)/C=N/NC(=O)c1cc2ccccc2cc1O
inactive: [1] 13.5 µM | [2] 35.4 µM | [3] 21.6 µM | [4] 7.69 µM | [5] 6.84 µM | [6] 28.8 µM | [7] 17.9 µM | [8] 33.7 µM | [9] 26.4 µM

COc1c(O)ccc(/C=N/NC(=S)NCOCCOC(C)=O)c1OC
inactive: [1] > 100 µM | [2] > 100 µM | [3] > 100 µM | [4] > 100 µM | [5] > 100 µM | [6] > 100 µM | [7] > 100 µM | [8] > 100 µM | [9] > 100 µM
